Paper PMC7827406, “Structure–Activity Relationship (SAR) Study of Spautin-1 to Entail the Discovery of Novel NEK4 Inhibitors” (International Journal of Molecular Sciences, 2021)
Like-named read-outs stand apart in the source and are kept apart here.

What was measured:
Test in all cases: biochemical
Set-up in all cases: Eurofins KinaseProfiler full panel at Km ATP, residual kinase activity (%) relative to DMSO
CaMKK1(h) = CaMKK1(h) (Homo sapiens, UniProt Q8N5S9)
How it was run: (§1)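 Compounds screened at 10 µM in radiometric kinase activity assays at Km ATP, reported as remaining kinase activity (%). A KINOMEscan competition-binding screen at 10 µM measured DNA-tagged kinase retained on immobilized active-site ligand by qPCR.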

TrkA(h) = molecular target: T1, TrkA(h) (Homo sapiens, UniProt P04629)
T1 construct: gene NTRK1
T1 sequence (P04629 whole entry): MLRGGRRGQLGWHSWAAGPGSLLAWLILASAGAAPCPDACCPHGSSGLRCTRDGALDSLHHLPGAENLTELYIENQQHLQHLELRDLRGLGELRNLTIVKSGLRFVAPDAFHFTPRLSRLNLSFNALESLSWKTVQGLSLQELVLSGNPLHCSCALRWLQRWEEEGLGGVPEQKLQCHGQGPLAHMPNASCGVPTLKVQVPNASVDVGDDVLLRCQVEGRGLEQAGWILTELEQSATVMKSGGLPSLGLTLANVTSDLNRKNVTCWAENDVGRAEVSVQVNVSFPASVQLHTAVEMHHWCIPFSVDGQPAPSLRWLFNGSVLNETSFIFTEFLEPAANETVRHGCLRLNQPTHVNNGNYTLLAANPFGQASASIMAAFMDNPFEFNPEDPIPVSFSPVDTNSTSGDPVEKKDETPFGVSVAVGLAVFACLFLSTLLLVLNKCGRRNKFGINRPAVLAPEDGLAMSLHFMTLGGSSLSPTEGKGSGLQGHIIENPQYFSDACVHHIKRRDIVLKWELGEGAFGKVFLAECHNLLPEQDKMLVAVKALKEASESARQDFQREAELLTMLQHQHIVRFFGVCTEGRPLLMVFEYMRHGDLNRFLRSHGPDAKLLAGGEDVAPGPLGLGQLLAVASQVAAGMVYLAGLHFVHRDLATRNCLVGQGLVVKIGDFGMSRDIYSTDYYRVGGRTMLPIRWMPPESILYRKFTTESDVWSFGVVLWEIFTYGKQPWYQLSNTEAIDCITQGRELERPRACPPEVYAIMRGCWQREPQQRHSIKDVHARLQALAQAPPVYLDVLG
How it was run: as §1

Abl (H396P) (h) = molecular target: T2, Abl (H396P) (h) (Homo sapiens, UniProt P00519, H396P)
T2 construct: gene ABL1
How it was run: as §1

MYO3B(h) = molecular target: T3, MYO3B(h) (Homo sapiens, UniProt Q8WXR4)
T3 sequence (Q8WXR4 1-1341): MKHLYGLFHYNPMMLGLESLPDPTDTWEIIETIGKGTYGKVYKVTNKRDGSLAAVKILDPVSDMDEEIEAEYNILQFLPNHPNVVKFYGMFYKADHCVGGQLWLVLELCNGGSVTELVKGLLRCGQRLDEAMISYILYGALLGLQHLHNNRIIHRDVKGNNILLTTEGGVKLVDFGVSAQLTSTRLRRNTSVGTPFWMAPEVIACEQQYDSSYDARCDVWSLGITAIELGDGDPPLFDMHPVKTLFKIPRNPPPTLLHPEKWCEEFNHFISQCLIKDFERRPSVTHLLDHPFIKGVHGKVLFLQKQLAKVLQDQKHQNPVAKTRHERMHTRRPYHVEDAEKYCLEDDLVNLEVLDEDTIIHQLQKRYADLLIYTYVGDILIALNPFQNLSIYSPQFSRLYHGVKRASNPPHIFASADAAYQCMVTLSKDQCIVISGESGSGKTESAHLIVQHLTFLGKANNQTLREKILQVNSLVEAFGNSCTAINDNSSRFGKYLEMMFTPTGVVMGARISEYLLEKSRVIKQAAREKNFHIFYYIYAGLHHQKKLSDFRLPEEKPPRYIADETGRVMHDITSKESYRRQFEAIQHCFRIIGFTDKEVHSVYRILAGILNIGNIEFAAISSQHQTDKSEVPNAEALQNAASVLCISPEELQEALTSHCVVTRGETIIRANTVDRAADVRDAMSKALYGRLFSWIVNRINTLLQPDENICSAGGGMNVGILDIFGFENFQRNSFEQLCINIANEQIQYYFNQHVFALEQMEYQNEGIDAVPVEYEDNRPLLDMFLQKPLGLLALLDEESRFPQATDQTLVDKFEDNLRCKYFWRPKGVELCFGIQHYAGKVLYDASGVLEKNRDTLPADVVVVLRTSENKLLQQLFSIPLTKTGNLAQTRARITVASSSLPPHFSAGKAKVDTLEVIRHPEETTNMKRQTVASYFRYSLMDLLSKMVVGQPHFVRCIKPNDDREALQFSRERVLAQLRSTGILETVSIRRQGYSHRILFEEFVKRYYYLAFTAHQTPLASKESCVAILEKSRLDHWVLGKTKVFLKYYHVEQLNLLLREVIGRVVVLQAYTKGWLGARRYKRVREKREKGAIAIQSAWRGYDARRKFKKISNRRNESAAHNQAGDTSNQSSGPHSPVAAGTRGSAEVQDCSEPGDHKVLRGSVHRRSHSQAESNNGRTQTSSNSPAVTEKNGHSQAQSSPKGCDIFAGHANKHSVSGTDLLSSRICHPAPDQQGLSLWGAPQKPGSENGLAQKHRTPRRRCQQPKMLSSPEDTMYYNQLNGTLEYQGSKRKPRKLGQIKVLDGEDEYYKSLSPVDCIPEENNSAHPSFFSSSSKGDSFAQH
How it was run: as §1

Syk(h) = Syk(h) (Homo sapiens, UniProt P43405)
How it was run: as §1

PRP4(h) = molecular target: T4, PRP4(h) (Homo sapiens, UniProt Q13523)
T4 construct: gene PRP4K
T4 sequence (Q13523 whole entry): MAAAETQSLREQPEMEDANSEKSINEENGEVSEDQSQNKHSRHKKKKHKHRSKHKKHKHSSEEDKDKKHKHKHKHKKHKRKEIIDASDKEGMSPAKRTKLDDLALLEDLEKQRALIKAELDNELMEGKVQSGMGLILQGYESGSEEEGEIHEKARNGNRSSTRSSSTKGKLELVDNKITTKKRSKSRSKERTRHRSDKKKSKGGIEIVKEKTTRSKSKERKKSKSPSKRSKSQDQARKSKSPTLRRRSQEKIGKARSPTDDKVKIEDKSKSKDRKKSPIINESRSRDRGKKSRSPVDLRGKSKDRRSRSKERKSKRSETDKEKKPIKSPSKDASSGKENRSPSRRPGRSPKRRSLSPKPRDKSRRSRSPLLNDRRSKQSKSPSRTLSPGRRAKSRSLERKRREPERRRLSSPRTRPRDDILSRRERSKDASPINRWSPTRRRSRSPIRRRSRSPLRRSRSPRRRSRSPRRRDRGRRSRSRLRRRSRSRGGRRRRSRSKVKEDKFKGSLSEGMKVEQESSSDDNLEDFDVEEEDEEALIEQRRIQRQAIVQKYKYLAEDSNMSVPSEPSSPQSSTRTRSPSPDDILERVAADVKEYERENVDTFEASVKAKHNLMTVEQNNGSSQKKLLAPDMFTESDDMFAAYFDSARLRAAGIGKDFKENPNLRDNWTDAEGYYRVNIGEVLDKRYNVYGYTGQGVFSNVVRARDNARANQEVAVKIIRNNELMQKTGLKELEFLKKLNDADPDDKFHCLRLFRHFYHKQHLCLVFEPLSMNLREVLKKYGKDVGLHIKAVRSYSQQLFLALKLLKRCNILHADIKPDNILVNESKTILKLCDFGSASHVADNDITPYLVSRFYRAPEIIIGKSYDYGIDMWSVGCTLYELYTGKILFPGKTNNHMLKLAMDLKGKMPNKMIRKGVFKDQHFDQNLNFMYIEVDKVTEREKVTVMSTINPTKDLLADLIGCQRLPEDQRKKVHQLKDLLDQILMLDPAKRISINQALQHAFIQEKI
How it was run: as §1

WNK3(h) = WNK3(h) (Homo sapiens, UniProt Q9BYP7)
Chain of WNK3(h) (Q9BYP7 whole entry): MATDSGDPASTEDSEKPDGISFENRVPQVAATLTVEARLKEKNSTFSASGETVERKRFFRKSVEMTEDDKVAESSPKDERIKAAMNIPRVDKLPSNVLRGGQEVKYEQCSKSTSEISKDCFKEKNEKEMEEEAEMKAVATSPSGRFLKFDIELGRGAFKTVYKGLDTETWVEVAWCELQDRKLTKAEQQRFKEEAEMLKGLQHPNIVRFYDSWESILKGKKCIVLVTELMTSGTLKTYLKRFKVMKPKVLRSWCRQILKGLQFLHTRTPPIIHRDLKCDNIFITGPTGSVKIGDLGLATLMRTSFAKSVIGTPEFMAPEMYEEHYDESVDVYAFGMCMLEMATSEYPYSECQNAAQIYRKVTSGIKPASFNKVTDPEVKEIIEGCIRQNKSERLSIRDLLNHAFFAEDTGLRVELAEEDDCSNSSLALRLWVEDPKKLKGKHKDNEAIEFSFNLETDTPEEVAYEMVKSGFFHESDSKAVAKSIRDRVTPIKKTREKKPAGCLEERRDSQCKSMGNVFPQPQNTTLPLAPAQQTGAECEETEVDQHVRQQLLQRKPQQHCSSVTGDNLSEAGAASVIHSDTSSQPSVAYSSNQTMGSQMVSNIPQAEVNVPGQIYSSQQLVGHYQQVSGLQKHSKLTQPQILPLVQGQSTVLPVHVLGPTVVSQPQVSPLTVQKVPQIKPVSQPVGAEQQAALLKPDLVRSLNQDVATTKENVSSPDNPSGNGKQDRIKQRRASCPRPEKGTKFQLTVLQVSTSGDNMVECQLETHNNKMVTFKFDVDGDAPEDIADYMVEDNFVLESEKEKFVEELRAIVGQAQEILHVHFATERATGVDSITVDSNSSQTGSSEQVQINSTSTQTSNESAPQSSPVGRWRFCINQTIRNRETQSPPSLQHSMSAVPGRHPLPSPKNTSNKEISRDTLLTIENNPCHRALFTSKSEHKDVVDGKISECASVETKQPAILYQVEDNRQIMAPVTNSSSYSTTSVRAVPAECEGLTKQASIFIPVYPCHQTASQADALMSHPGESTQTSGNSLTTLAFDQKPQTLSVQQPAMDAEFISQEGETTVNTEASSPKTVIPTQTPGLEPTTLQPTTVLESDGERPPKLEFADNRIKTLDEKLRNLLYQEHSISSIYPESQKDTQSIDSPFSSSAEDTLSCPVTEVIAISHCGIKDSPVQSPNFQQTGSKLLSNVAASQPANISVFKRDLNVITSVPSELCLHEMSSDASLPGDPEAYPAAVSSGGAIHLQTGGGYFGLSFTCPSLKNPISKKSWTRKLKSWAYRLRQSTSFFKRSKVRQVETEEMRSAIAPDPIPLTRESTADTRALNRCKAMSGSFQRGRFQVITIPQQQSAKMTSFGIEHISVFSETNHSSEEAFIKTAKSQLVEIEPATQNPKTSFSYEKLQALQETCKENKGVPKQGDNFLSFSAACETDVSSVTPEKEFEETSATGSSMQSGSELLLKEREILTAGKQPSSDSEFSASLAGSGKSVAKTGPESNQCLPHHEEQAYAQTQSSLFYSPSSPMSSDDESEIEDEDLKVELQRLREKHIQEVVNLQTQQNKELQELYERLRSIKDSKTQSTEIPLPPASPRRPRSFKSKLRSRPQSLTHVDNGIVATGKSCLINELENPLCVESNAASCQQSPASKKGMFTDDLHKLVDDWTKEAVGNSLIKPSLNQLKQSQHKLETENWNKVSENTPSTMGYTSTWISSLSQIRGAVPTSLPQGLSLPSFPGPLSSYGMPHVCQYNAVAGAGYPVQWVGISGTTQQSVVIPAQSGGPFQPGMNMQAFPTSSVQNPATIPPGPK
How it was run: as §1

CDK16/cyclinY(h) = CDK16/cyclinY(h) (Homo sapiens, UniProt Q00536)
Chain of CDK16/cyclinY(h) (Q00536 whole entry): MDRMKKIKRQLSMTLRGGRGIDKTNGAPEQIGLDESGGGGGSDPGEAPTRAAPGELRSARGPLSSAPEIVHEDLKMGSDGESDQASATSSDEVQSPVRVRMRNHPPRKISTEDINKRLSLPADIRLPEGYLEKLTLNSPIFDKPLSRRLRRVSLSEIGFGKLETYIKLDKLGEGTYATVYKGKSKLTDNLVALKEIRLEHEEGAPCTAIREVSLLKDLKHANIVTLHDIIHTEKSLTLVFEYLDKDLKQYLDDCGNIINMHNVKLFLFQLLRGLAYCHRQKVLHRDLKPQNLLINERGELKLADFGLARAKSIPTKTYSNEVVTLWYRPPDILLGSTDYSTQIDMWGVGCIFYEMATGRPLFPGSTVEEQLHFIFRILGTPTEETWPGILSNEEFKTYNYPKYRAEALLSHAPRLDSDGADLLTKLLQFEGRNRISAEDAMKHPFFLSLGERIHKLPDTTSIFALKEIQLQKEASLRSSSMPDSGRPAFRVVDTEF
Chain of CDK16/cyclinY(h) (Q8ND76 whole entry partner): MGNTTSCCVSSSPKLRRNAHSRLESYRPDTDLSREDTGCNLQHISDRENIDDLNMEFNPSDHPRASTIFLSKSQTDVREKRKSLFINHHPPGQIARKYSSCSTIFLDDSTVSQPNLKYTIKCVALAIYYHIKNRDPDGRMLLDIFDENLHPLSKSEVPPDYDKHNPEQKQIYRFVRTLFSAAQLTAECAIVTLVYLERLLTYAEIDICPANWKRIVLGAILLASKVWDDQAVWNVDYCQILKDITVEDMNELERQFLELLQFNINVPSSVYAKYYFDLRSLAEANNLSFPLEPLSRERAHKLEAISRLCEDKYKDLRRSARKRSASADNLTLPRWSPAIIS
How it was run: as §1

[1] = read-out: Residual activity (%) 5at
[2] = read-out: Residual activity (%) 5as
[3] = read-out: Residual activity (%) 5ay
[4] = read-out: Residual activity (%) Spautin-1 5aa

Chain of CaMKK1(h) (Q8N5S9 whole entry): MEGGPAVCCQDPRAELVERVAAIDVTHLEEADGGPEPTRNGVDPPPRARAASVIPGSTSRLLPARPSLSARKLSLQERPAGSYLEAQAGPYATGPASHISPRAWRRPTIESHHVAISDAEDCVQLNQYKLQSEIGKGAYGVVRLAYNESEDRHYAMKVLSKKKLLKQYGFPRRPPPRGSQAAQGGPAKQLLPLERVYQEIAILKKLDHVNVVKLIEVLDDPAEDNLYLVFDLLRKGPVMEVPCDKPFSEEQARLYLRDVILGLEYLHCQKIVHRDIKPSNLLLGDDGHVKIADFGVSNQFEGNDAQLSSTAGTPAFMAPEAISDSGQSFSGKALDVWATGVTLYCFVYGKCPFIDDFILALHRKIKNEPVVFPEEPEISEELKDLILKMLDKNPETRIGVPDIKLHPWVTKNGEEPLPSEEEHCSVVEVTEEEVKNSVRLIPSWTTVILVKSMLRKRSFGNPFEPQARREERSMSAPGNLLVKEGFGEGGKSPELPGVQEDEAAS

Compound: Fc1ccc2ncnc(NCCc3ccc(Cl)cc3)c2c1 [5at, N-[2-(4-Chlorophenyl)Ethyl]-6-Fluoro-4-Quinazolinamine]
- remaining activity at 10 µM (CaMKK1(h); [1]): 91%
- remaining activity at 10 µM (TrkA(h); [1]): 60%
- remaining activity at 10 µM (Abl (H396P) (h); [1]): 80%
- remaining activity at 10 µM (MYO3B(h); [1]): 87%
- remaining activity at 10 µM (Syk(h); [1]): 92%
- remaining activity at 10 µM (PRP4(h); [1]): 99%
- remaining activity at 10 µM (WNK3(h); [1]): 86%
- remaining activity at 10 µM (CDK16/cyclinY(h); [1]): 104%

Compound: Fc1ccc(CCNc2ncnc3ccc(F)cc23)cc1 [5as, 6-Fluoro-N-[2-(4-Fluorophenyl)Ethyl]-4-Quinazolinamine]
- remaining activity at 10 µM (CaMKK1(h); [2]): 99%
- remaining activity at 10 µM (TrkA(h); [2]): 87%
- remaining activity at 10 µM (Abl (H396P) (h); [2]): 86%
- remaining activity at 10 µM (MYO3B(h); [2]): 84%
- remaining activity at 10 µM (Syk(h); [2]): 84%
- remaining activity at 10 µM (PRP4(h); [2]): 105%
- remaining activity at 10 µM (WNK3(h); [2]): 98%
- remaining activity at 10 µM (CDK16/cyclinY(h); [2]): 114%

Compound: COc1ccc2ncnc(Nc3cccc(F)c3)c2c1 [5ay, N-(3-Fluorophenyl)-6-Methoxy-4-Quinazolinamine]
- remaining activity at 10 µM (CaMKK1(h); [3]): 90%
- remaining activity at 10 µM (TrkA(h); [3]): 70%
- remaining activity at 10 µM (Abl (H396P) (h); [3]): 76%
- remaining activity at 10 µM (MYO3B(h); [3]): 88%
- remaining activity at 10 µM (Syk(h); [3]): 110%
- remaining activity at 10 µM (PRP4(h); [3]): 100%
- remaining activity at 10 µM (WNK3(h); [3]): 104%
- remaining activity at 10 µM (CDK16/cyclinY(h); [3]): 81%

Compound: Fc1ccc(CNc2ncnc3ccc(F)cc23)cc1 [5aa, 6-Fluoro-N-(4-fluorobenzyl)-4-Quinazolinamine]
- remaining activity at 10 µM (CaMKK1(h); [4]): 96%
- remaining activity at 10 µM (TrkA(h); [4]): 65%
- remaining activity at 10 µM (Abl (H396P) (h); [4]): 95%
- remaining activity at 10 µM (MYO3B(h); [4]): 89%
- remaining activity at 10 µM (Syk(h); [4]): 113%
- remaining activity at 10 µM (PRP4(h); [4]): 104%
- remaining activity at 10 µM (WNK3(h); [4]): 90%
- remaining activity at 10 µM (CDK16/cyclinY(h); [4]): 90%
